The record followed here is patent publication US10093656B2, “Fused-ring or tricyclic aryl pyrimidine compound used as kinase inhibitor” (NANJING SANHOME PHARMACEUTICAL CO., LTD, priority 2015, dated 2018).

One assay concerns the target T1, EGFR wild type (Homo sapiens, UniProt P00533).
T1 construct: purchased Life technology (Madison, Wis.)
Kind of assay: Wild-type EGFR enzyme HTRF inhibition assay. The format is biochemical. The following applies: 25 μM ATP, read-out: EGFR WT IC50. The essentials:
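HTRF with 0.05 nM wild-type EGFR, 1 μM biotin-TK1 peptide, 25 μM ATP, 60 min at 23° C; detected with Eu-anti-TK1 antibody 2 nM and XL665 62.5 nM, 60 min at 23° C. Ten 3-fold doses, 300 nM to 0.015 nM final; IC50 by four-parameter fit of % inhibition.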

The target in another assay is T2, EGFR T790M/L858R (Homo sapiens, UniProt P00533, L858R/T790M).
T2 construct: purchased Life technology (Madison, Wis.)
T2 sequence (P00533 25-1210 T790M/L858R): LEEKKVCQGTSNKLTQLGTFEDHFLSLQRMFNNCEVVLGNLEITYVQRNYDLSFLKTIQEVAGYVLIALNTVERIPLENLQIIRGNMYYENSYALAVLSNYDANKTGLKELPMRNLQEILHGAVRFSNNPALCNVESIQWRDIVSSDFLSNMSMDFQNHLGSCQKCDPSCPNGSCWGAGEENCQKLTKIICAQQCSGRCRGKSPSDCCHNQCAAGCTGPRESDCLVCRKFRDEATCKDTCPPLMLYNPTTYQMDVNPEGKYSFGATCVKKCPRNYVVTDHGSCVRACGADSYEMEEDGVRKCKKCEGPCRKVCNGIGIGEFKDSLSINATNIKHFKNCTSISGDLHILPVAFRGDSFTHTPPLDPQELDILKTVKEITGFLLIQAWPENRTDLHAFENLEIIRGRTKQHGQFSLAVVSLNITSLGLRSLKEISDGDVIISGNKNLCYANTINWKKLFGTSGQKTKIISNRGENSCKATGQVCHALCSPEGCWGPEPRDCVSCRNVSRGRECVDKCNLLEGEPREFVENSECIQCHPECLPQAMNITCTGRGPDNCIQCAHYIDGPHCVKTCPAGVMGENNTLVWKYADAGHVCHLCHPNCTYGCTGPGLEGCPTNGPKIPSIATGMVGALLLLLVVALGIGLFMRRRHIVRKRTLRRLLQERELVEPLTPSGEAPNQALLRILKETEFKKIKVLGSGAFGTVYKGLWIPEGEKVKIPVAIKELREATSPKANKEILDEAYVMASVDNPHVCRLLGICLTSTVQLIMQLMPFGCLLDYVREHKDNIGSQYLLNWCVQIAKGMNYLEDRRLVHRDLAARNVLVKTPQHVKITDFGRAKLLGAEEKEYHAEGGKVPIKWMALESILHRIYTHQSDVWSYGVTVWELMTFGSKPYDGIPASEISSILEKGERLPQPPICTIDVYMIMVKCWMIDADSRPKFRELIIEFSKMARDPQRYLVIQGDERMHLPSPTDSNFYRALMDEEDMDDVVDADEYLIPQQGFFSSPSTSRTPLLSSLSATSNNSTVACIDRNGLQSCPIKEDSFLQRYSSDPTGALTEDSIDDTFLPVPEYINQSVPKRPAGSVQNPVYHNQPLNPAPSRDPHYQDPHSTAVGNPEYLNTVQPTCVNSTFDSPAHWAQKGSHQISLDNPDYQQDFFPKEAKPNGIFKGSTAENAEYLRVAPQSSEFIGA
Put plainly: EGFR T790M/L858R enzyme HTRF inhibition assay. The format is biochemical. As to conditions: 20 μM ATP, read-out: EGFR L858R/T79M IC50. The gist of the method:
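HTRF assay with 0.04 nM enzyme, 1 μM biotin-TK1 peptide and 20 μM ATP, 60 min at 23° C. Product detected with Eu-anti-TK1 antibody/XL665 (60 min at 23° C); compound at 10 doses, 300 nM to 0.015 nM final. IC50 from four-parameter fit.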

A further assay has as its target T3, EGFR d746-750/T790M (Homo sapiens, UniProt P00533, DEL746-750/T790M).
T3 construct: purchased Carna Biosciences (Japan)
Kind of assay: EGFR d746-750/T790M enzyme HTRF inhibition assay. As to conditions: 40 μM ATP. The format is biochemical. The essentials:
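0.025 nM enzyme with 1 μM biotin-TK1 peptide and 40 μM ATP, 60 min at 23° C; compound tested at 10 doses, 300 nM to 0.015 nM final. HTRF read (Eu-anti-TK1 antibody 2 nM, XL665 62.5 nM, 60 min at 23° C); IC50 from four-parameter fit of % inhibition.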

For assay [1], the system named is NCI-H1975 cells EGFR L858R/T790M. Kind of assay: NCI-H1975 cell viability assay (Cell Titer-Glo, 6 days). The format is cell-based. As to conditions: Homo sapiens, 144 h. The gist of the method:
(§1)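 A431 (EGFR WT) and NCI-H1975 (EGFR L858R/T790M) cells treated for 6 days at 37° C, in duplicate with 10 three-fold doses from 10 μM to 0.508 nM final. Viability read as CellTiter-Glo luminescence. IC50 from four-parameter fit of % inhibition.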

For a further assay, the system named is A431 cells EGFR WT. Kind of assay: A431 cell viability assay (Cell Titer-Glo, 6 days). The format is cell-based, human. The following applies: for IC50: Homo sapiens, A-431, 144 h, A431 cells, 6 days; for A431:NCI-H1975 (ratio): ratio of cell IC50 A431 to NCI-H1975. The essentials: as §1
Another assay addresses T4, INSR (Homo sapiens, UniProt P06213).
T4 construct: purchased Life technology (Madison, Wis.)
Put plainly: INSR enzyme HTRF inhibition assay. The format is biochemical. As to conditions: 35 μM ATP, read-out: INSR_IC50. The method, then:
Enzyme: EGFR wild type, EGFR T790M/L858R, EGFR T790M and INSR were purchased from Life technology (Madison, Wis.), EGFR d746-750/T790M was purchased from Carna Biosciences (Japan).
HTRF Kit was purchased from Cis-Bio International which contained the Eu-labeled TK1 antibody, XL665 and biotin-labeled TK1 polypeptide substrates.
Detecting instrument: Envision (PerkinElmer).
The test compound was diluted 3-fold to obtain 10 doses of which the final concentration was from 300 nM to 0.015 nM.
INSR Enzyme Reaction Mixture System:
0.5 nM INSR, 1 μM biotin-TK1 peptide, 35 μM ATP enzyme buffer, a total of which was 10 μL. The reaction plate was white Proxiplate 384-Plus plate (PerkinElmer) and the mixture was reacted at 23° C. for 60 minutes.
Reaction Detection: 10 μL of detection reagent containing Antibody 2 nM and XL665 62.5 nM was added, and the reagent was incubated at 23° C. for 60 minutes. The plates were read by Envision.
The reading is converted to the suppression rate (%) by the following formula […]/(Max-Min)*100%. IC50 Data was measured by four-parameter curve fitting (Model 205 in XLFITS, IDBS).

Assay [2] has as its system NCI-H1975 lung cancer patient-derived xenograft (CDX). Kind of assay: Pharmacodynamics study in vivo, NCI-H1975 xenograft (CDX) model. More on the design: species or system BALB/c nude mice. The following applies: AZD9291 5 mg/kg; for Tumor Volume (mm^3) 4 days: day 4, oral daily: compound 30 10 mg/kg, 33, 34, 40, 42, 43 20 mg/kg; for Tumor Volume (mm^3) 7 days: day 7, oral daily: compound 30 10 mg/kg, 33, 34, 40, 42, 43 20 mg/kg; for Tumor Volume (mm^3) 11 days: day 11, oral daily: compound 30 10 mg/kg, 33, 34, 40, 42, 43 20 mg/kg; for Tumor Volume (mm^3) 14 days: day 14, oral daily: compound 30 10 mg/kg, 33, 34, 40, 42, 43 20 mg/kg; for Tumor Volume (mm^3) 18 days: day 18, oral daily: compound 30 10 mg/kg, 33, 34, 40, 42, 43 20 mg/kg. The method, then:
For example, after 21 days of administration, the tumor volume of the representative compounds 30, 33, 34, 40, 42 and 43 decreased from the beginning of about 149 mm^3 to 3-39 mm^3.
The pharmacological experiments in vivo were performed on BALB/c nude mice that subcutaneously implanted NCI-H1975 lung cancer […] xenograft (CDX).
BALB/c nude mice, female, 6-8 weeks, weighted about 18-22 grams, the mice were kept in a special pathogen-free environment, and in a single ventilation cage (5 mice per cage). The bedding and water of all the cages were disinfected before use. All animals were free to obtain standard certified commercial laboratory diets. A total of 100 mice were purchased from Beijing Vital for research. The tumor tissue (20-30 mm^3) was implanted subcutaneously in the […] of each mouse for tumor growth. The experiment was started when the average tumor volume reached about 150-200 mm^3. The test compound was orally administered daily (compound 30 was administered at 10 mg/kg, compound 33, 34, 40, 42 and 43 were administered at 20 mg/kg and compound AZD9291 was administered continuously for 21 days at 5 mg/kg, the data were shown in Table 3). The tumor volume was measured twice a week with a two-dimensional caliper and the volume was measured in cubic millimeters and calculated by the following formula: V=V=0.5 a×b2, where a and b were the major and minor diameters of the tumor, respectively.

Assay [3] has as its system human skin squamous cell A431 xenograft (CDX). Kind of assay: Selectivity study in vivo, A431 xenograft (CDX) model. More on the design: species or system BALB/c nude mice. The following applies: Table 5 experiment, AZD9291 5 mg/kg; for Tumor Volume (mm^3) 4 days: day 4, oral once daily: 33, 34, 40, 42, 43 20 mg/kg; for Tumor Volume (mm^3) 11 days: day 11, oral once daily: 33, 34, 40, 42, 43 20 mg/kg; for Tumor Volume (mm^3) 18 days: day 18, oral once daily: 33, 34, 40, 42, 43 20 mg/kg. The method, then: In this model, the less inhibitory effect on the tumor, the better the selectivity in vivo.
The selective experiments in vivo were performed on BALB/c nude mice that subcutaneously implanted human skin squamous cell A431 xenograft (CDX).
BALB/c nude mice, female, 6-8 weeks, weighted about 18-20 grams, the mice were kept in a special pathogen-free environment and in a single ventilation cage (5 mice per cage). The bedding and water of all the cages were disinfected before use. All animals were free to obtain standard certified commercial laboratory diets. All mice were purchased from mice of Shanghai BK Laboratory Animal Co., LTD for research. The tumor tissue (20-30 mm^3) was implanted subcutaneously in the […] of each mouse for tumor growth. The experiment was started when the average tumor volume reached about 150-200 mm^3. The test compound was orally administered (compounds 17, 30, 37 and 38 were administered once daily at 20 mg/kg, the compound AZD9291 was administered once daily at 5 mg/kg, the compound CO-1686 was administered twice daily at 50 mg/kg, the compound Erlotinib was administered once daily at 75 mg/kg and the compound Afatinib was administered once daily at 7.5 mg/kg, 21 days of continuous administration. The data were shown in Table 4; compounds 33, 34, 40, 42 and 43 were administered once daily at 20 mg/kg and compound AZD9291 was administered once daily at5 mg/kg, 21 days of continuous administration. The tumor volume was measured twice a week with a two-dimensional caliper and the volume was measured in cubic millimeters and calculated by the following formula: V=V=0.5 a×b2, where a and b were the major and minor diameters of the tumor, respectively.

T3 sequence (P00533 with tags, fused parts or gaps DEL746-750/T790M limits assumed): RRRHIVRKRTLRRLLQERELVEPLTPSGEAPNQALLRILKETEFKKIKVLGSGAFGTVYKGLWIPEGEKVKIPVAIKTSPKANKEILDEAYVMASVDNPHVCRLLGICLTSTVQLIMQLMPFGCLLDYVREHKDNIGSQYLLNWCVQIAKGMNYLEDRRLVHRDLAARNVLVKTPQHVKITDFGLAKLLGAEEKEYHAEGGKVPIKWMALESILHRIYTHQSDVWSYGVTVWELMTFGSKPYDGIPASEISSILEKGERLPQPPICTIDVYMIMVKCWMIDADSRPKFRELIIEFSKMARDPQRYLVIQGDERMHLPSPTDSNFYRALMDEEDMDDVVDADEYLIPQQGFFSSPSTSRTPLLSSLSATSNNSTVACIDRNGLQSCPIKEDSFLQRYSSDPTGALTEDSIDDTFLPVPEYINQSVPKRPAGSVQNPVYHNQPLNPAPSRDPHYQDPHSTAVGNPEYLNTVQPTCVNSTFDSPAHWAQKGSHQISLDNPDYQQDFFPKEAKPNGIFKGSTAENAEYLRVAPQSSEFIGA
T4 sequence (P06213 28-1382): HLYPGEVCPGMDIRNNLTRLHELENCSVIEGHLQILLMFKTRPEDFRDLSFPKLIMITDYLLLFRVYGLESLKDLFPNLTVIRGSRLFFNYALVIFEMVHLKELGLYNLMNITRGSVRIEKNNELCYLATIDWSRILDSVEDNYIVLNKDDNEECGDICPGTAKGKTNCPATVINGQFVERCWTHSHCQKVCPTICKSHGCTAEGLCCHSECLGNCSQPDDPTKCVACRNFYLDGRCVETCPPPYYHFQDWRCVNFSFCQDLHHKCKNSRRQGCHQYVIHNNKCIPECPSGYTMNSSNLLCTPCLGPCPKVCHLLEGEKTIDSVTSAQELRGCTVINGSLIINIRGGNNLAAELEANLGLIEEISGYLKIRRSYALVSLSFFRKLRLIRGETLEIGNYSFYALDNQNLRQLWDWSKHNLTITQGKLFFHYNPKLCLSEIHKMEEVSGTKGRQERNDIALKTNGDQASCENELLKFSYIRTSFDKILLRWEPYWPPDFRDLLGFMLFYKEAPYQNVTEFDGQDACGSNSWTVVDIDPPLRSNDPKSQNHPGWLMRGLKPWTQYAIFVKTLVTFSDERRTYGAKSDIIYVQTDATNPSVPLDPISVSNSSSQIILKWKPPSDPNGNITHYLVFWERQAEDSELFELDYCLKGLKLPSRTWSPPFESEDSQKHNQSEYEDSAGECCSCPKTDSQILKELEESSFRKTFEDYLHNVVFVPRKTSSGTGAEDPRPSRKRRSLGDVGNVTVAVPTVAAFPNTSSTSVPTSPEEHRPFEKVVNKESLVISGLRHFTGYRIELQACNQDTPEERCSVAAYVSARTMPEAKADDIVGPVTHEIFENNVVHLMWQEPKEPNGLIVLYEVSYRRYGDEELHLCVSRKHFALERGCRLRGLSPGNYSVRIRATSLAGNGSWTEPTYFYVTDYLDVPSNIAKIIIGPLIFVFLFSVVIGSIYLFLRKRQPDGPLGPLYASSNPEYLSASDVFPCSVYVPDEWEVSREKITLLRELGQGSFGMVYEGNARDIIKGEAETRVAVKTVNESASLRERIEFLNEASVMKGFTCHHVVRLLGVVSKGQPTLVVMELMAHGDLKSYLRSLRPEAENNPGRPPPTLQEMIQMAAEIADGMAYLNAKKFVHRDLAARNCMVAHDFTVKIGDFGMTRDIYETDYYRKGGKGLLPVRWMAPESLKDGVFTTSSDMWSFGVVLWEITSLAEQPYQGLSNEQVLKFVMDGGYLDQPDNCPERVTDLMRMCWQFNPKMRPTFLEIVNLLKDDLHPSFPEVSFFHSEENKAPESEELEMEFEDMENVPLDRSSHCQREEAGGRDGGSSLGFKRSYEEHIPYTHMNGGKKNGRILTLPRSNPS
T1 sequence (P00533 25-1210): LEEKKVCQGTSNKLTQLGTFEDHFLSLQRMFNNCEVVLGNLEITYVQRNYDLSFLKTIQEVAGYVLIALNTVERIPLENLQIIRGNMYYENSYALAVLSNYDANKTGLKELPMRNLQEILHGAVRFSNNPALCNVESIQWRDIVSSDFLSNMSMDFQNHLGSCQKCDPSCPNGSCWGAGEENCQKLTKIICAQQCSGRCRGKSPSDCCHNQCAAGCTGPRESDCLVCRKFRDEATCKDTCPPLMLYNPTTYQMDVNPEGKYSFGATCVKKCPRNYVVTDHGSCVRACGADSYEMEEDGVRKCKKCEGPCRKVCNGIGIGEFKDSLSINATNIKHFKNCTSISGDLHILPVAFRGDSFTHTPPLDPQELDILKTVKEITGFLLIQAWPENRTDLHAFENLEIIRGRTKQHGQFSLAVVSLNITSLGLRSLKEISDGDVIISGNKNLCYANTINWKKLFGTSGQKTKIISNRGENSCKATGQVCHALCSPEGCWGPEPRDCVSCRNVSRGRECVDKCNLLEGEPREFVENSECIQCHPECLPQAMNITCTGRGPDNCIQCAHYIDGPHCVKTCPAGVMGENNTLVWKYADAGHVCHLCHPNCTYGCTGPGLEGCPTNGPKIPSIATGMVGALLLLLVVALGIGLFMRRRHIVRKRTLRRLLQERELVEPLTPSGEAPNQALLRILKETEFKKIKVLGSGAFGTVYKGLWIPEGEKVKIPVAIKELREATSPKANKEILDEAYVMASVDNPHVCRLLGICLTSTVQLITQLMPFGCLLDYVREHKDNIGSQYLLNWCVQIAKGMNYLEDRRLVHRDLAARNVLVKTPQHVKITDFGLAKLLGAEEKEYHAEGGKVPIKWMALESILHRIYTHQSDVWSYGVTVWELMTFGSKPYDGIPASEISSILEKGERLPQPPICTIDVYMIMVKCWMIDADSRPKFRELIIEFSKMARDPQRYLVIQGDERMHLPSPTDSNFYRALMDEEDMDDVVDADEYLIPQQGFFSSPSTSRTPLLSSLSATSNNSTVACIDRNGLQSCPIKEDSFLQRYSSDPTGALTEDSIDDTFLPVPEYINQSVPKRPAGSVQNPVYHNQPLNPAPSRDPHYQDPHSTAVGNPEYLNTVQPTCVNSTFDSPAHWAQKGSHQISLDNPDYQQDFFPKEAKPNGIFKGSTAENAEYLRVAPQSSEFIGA

For `C=CC(=O)Nc1cc(Nc2nccc(-c3c4n(c5ccccc35)CCC4)n2)c(OC)cc1N(C)CCN(C)C` [Embodiment 1], the IC50 is 1.49 nM at EGFR wild type; 0.32 nM at EGFR T790M/L858R; 0.39 nM on EGFR d746-750/T790M; 10.4 nM in assay [1]; 714 nM in the assay on A431 cells EGFR WT; 404 nM at INSR. In the assay on A431 cells EGFR WT, the “A431:NCI-H1975 (ratio)” value came to 71.4.

`C=CC(=O)Nc1cc(Nc2nccc(-c3c4n(c5ccccc35)CCOC4)n2)c(OC)cc1N(C)CC(C)(C)N(C)C` [Embodiment 25, N-(5-((4-(3,4-Dihydro-1H-[1,4]oxazino[4,3-a]indol-10-yl)pyrimidin-2-yl)amino)-2-((2-(dimethylamino)-2-methylpropyl)(methyl)amino)-4-methoxyphenyl)acrylamide]: the IC50 is 0.81 nM on EGFR wild type; 0.2 nM at EGFR T790M/L858R; 0.13 nM against EGFR d746-750/T790M; 4 nM in assay [1]; 248 nM in the assay on A431 cells EGFR WT; 333 nM at INSR. Also, the “A431:NCI-H1975 (ratio)” value with A431 cells EGFR WT is 62.

As to `C=CC(=O)Nc1cc(Nc2nccc(-c3c4n(c5ccccc35)CCOC4)n2)c(OC)cc1N(C)CCN(C)C` [Embodiment 17, N-(5-((4-(3,4-Dihydro-1H-[1,4]oxazino[4,3-a]indol-10-yl)pyrimidin-2-yl)amino)-2-((2-(dimethylamino)ethyl)(methyl)amino)-4-methoxyphenyl)acrylamide], the IC50 came out at 0.89 nM on EGFR wild type; 0.21 nM on EGFR T790M/L858R; 0.18 nM on EGFR d746-750/T790M; 4.1 nM in assay [1]; 777 nM in the assay with A431 cells EGFR WT; 341 nM on INSR. The “A431:NCI-H1975 (ratio)” value in the assay on A431 cells EGFR WT is on record as 189.5.

Consider `C=CC(=O)Nc1cc(Nc2nccc(-c3c4n(c5ccc(F)cc35)CCOC4)n2)c(OC)cc1N(C)CCN(C)C` [Embodiment 37, N-(2-((2-(Dimethylamino)ethyl)(methyl)amino)-5-((4-(8-fluoro-3,4-dihydro-1H-[1,4]oxazino[4,3-a]indol-10-yl)pyrimidin-2-yl)amino)-4-methoxyphenyl)acrylamide], for which the IC50 at EGFR wild type came to 0.35 nM; at EGFR T790M/L858R, 0.1 nM; at EGFR d746-750/T790M, 0.1 nM; in assay [1] it was 12.5 nM; in the assay on A431 cells EGFR WT, 303 nM; at INSR, 440 nM. For the same compound, the “A431:NCI-H1975 (ratio)” value with A431 cells EGFR WT is 24.

On to `C=CC(=O)Nc1cc(Nc2ncc(F)c(-c3c4n(c5cc(Cl)ccc35)CCOC4)n2)c(OC)cc1N(C)CCN(C)C` [Embodiment 34, N-(5-((4-(7-Chloro-3,4-dihydro-1H-[1,4]oxazino[4,3-a]indol-10-yl)-5-fluoropyrimidin-2-yl)amino)-2-((2-(dimethylamino)ethyl)(methyl)amino)-4-methoxyphenyl)acrylamide], for which, in assay [2], the “Tumor Volume (mm^3) 4 days” value was found to be 102 mm^3, the “Tumor Volume (mm^3) 7 days” value is reported as 80 mm^3, the “Tumor Volume (mm^3) 11 days” value was found to be 70 mm^3 and the “Tumor Volume (mm^3) 14 days” value stood at 59 mm^3. Further, the “Tumor Volume (mm^3) 18 days” value in assay [2] worked out at 35 mm^3. The IC50 at EGFR wild type was found to be 2 nM. The IC50 on EGFR T790M/L858R is 0.8 nM. The same compound registered an IC50 on EGFR d746-750/T790M of 0.6 nM. In addition, in assay [3], the “Tumor Volume (mm^3) 4 days” value is 237 mm^3, the “Tumor Volume (mm^3) 11 days” value is listed as 646 mm^3 and the “Tumor Volume (mm^3) 18 days” value is listed as 1357 mm^3. The compound also gave an IC50 in assay [1] of 68 nM. Further, in the assay on A431 cells EGFR WT, the IC50 was found to be 2100 nM and the “A431:NCI-H1975 (ratio)” value was determined as 31.

As for `C=CC(=O)Nc1cc(Nc2nccc(-c3cn4c5c(cccc35)OC3(CC3)C4)n2)c(OC)cc1N(C)CCN(C)C` [Embodiment 42, N-(5-((4-(3H-Spiro[[1,4]oxazino[2,3,4-hi]indole-2,1′-cyclopropan]-6-yl)pyrimidin-2-yl)amino)-2-((2-(dimethylamino)ethyl)(methyl)amino)-4-methoxyphenyl)acrylamide], the “Tumor Volume (mm^3) 4 days” value in assay [2] is 85 mm^3; in assay [3], 226 mm^3. Besides, the “Tumor Volume (mm^3) 7 days” value in assay [2] is 69 mm^3. In addition, the “Tumor Volume (mm^3) 11 days” value in assay [2] is 57 mm^3; in assay [3], 424 mm^3. Besides, the “Tumor Volume (mm^3) 14 days” value in assay [2] was 47 mm^3. In addition, the figures for the “Tumor Volume (mm^3) 18 days” value in assay [2] and in assay [3] were 20 mm^3 and 661 mm^3, respectively. Also, the IC50 at EGFR wild type was 0.8 nM; on EGFR T790M/L858R, 0.2 nM; against EGFR d746-750/T790M, 0.2 nM; in assay [1], 177 nM; in the assay with A431 cells EGFR WT it was 846 nM. Further, the “A431:NCI-H1975 (ratio)” value with A431 cells EGFR WT was 4.8.
